Test results from article PMC9295122, “Sialic Acid Derivatives Inhibit SiaT Transporters and Delay Bacterial Growth” (ACS Chemical Biology, 2022).
Values after ≈ are worked out from the molar mass of the structure shown.

Experiments:
SaSiaT = SaSiaT (Staphylococcus aureus, UniProt A0A0H2XJ46); experiment: nanoDSF thermal shift assay, SaSiaT; assay type: binding; details: for Average 1 / Average 2 / Average 3 / Replicate 1 / Replicate 2 / Replicate 3: SaSiaT Tm; for Average 1: average of experiment 1; for Average 2: average of experiment 2; for Average 3: average of experiment 3; for Replicate 1: experiment 1, second capillary; for Replicate 1 / Replicate 2 / Replicate 3 / Tm 1 / Tm2 / Tm 3 / Overall average (Tm): 1.25 mM; for Replicate 2: experiment 2, second capillary; for Replicate 3: experiment 3, second capillary; for Tm 1 / Tm2 / Tm 3 / Overall average (Tm): SaSiaT; for Tm 1: experiment 1, first capillary; for Tm2: experiment 2, first capillary; for Tm 3: experiment 3, first capillary; for Overall average (Tm): three experiments
Summary of the method: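 Protein at 2 μM in PBS with 0.0174% (w/v) DDM and ligand at 1.25 mM were heated from 25 to 95 °C at 1 °C/min, with 330/350 nm fluorescence ratio and its first derivative giving Tm. ΔTm is relative to the Neu5Ac Tm, averaged over 3 experiments with 2 capillaries each.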

Solubility screen = assay type: physicochemical; details: aqueous buffer, kinetic from dmso stock; 100 mM phosphate buffer, pH 7.4, 1% DMSO; read-out: solubility (solubility screening)
Protocol: The compounds were dissolved in 10 mM DMSO solutions. The solubility was assessed by dilution in 0.1 M phosphate buffer pH 7.4 to a concentration of 100 μM.

Solid solubility = assay type: physicochemical; details: phosphate buffer, pH 7.4, aqueous buffer, thermodynamic from solid; from solid material, tested up to 2000 μM; read-out: Solid solubility in 0.1 M phosphate buffer pH 7.4
Description: Duplicate samples per compound.

[1] = Metabolic stability in human liver microsomes; assay type: in vitro ADME; details: for microsomal CLint at 1 µM: human liver microsomes, read-out: intrinsic clearance Clint; for Metabolic stability in human microsomes, Exp. 1 / Metabolic stability in human microsomes, Exp. 2: intrinsic clearance, 1 µM compound
Protocol: The assay was run in a 96-deep well format and solutions were prepared containing microsomes in phosphate buffer. The microsomes employed were from humans, rats, and mice. The reaction was initiated by addition of NADPH after preincubation at 37 °C with test compounds. The reaction was stopped by the addition of acetonitrile (ACN) at six time points (0, 5, 10, 15, 25, and 45 min), the samples were centrifuged, and the supernatant was diluted to determine the loss of compound by LC–MS/MS. Two incubations per compound per species. For further details regarding working concentrations, volumes, and final concentrations at incubation, refer to the supplementary section (Table S6). […]
Metabolic Metabolic Metabolic stability in stability in stability in Plasma-protein human mouse rat In vitro plasma stability binding by RED
Assay/compo microsome microsome microsome (% compound remaining after (% unbound und s s s 23 h) compound, (µL/min/m (µL/min/m (µL/min/m average n=2) g protein) g protein) g protein)
Exp. Exp. Exp. Exp. Exp. Exp. Hum Mou Ra Do Mini Hum Mou Ra […]
Conc. of W orki ng Vol ume i n Fi nal conc. At sol uti on assay incubation
577 m g / m L520 µ L0. […]

Plasma stability, rat = assay type: in vitro ADME; details: 1 μM, 37 °C
Protocol: (§1) The reaction was started by the addition of the compound to blank plasma in LC vials after preincubation at 37 °C. The initial compound concentration was 1 μM. The reaction was stopped by the addition of ACN at seven time points (0, 0.5, 1, 2, 4, 6, and 23 h). Time point 0 h was about 15–20 s after spiking the plasma with the compound. The samples were centrifuged and the supernatant diluted and analyzed by LC–MS/MS to determine the % of compound remaining relative to the initial concentration of compound.

Plasma stability, dog = assay type: in vitro ADME; details: 1 μM, 37 °C
Protocol: as §1

[2] = Plasma-protein binding by RED, range over three species; assay type: in vitro ADME; details: pH 7.2, range over human, mouse, and rat, read-out: free fraction (plasma protein binding by RED)
Description: Next, we investigated the physiochemical and absorption, distribution, metabolism, and excretion (ADME) properties of compounds 3a, 3e, and 3f (Tables S5 and S6). […] The logD at pH 7.4 was below 0 for all three compounds (<−0.5 for compounds 3a and 3e). […] Overall, these features represent promising starting points for further development of this class of molecules.
The assay was run in a deep well plate containing RED inserts with semipermeable dialysis membranes. The reaction was started by adding the compounds to a blank plasma in a 5 μM concentration. Opposite to the blank plasma was a compartment containing isotonic sodium–phosphate buffer (pH 7.2) separated from the plasma by the membrane. The plate was equilibrated in a water bath at 37 °C for 4 h. Samples from both the plasma and the buffer side were matrix compensated before protein precipitation. The samples were centrifuged, and the supernatants were diluted and analyzed by LC–MS/MS to determine the % unbound compound. Two incubations per compound per species.

Chain of SaSiaT (A0A0H2XJ46 entry or part of it): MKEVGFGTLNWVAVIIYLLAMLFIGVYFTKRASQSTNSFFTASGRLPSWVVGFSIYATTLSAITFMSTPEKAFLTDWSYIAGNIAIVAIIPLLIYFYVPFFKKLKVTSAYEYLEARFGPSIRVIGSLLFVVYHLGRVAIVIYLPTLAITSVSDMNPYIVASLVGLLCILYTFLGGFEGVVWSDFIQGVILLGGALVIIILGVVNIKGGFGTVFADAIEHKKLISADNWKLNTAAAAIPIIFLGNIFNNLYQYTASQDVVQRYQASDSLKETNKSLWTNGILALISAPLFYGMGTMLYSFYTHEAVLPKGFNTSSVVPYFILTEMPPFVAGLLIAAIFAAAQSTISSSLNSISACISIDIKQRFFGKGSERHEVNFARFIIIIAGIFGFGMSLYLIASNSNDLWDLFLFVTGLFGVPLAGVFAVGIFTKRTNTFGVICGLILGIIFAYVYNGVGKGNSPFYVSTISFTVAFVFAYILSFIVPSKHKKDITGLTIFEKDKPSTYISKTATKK

Row | Compound | Average 1 (SaSiaT) [°C] | Average 2 (SaSiaT) [°C] | Average 3 (SaSiaT) [°C] | Replicate 1 (SaSiaT) [°C] | Replicate 2 (SaSiaT) [°C] | Replicate 3 (SaSiaT) [°C] | Tm 1 (SaSiaT) [°C] | Tm2 (SaSiaT) [°C] | Tm 3 (SaSiaT) [°C] | Overall average (Tm) (SaSiaT) [°C] | solubility (Solubility screen) [µM] | solubility (Solid solubility) [µM] | microsomal CLint at 1 µM [1] [µL/min/mg] | Metabolic stability in human microsomes, Exp. 1 [1] [µL/min/mg protein] | Metabolic stability in human microsomes, Exp. 2 [1] [µL/min/mg protein] | In vitro plasma stability (% compound remaining after 23 h) (Plasma stability, rat) [%] | In vitro plasma stability (% compound remaining after 23 h) (Plasma stability, dog) [%] | fraction unbound at 4 h, 5 μM [2] | ΔTm (SaSiaT; nanoDSF, relative to Neu5Ac, ligand 1.25 mM, <−5 °C nonbinder) [°C]
1 | CC(=O)NC1C(OCc2ccccc2)CC(O)(C(=O)O)OC1C(O)C(O)CO (centres unmarked) [Compound 3a] | 56.2 | 55.7 | 56.3 | 56.1 | 55.8 | 56.1 | 56.2 | 55.7 | 56.6 | 56.1 | > 95 | > 2000 | < 10 | < 10 | < 10 | 100 | 100 | 0.63 to 0.85 | –
2 | CC(=O)NC1C(OCc2cc(F)cc(F)c2)CC(O)(C(=O)O)OC1C(O)C(O)CO (centres unmarked) [Compound 3e] | 57.3 | 56.7 | 57.1 | 57.3 | 56.7 | 56.9 | 57.3 | 56.6 | 57.2 | 57.0 | > 95 | > 2000 | < 10 | < 10 | < 10 | 100 | 100 | 0.63 to 0.85 | –
3 | CC(=O)NC1C(OCc2cc(Br)cc(Br)c2)CC(O)(C(=O)O)OC1C(O)C(O)CO (centres unmarked) [Compound 3f] | 53.1 | 54.0 | 54.4 | 53.1 | 54.0 | 54.3 | 53.1 | 54.0 | 54.4 | 53.8 | > 95 | 1630 (≈ 908 µg/mL) | < 10 | < 10 | < 10 | 100 | 81 | 0.21 to 0.27 | 2.6 ± 0.7
4 | CC(=O)N[C@H]1[C@H]([C@H](O)[C@H](O)CO)OC(O)(C(=O)O)C[C@@H]1O (some centres unmarked) [Neu5Ac, 5-N-acetyl neuraminic acid, reference compound] | 51.3 | 51.1 | 51.3 | 51.4 | 51.4 | 51.0 | 51.3 | 50.9 | 51.6 | 51.2 | – | – | – | – | – | – | – | – | –
